Experimental data taken from the NIST ThermoML archive (doi:10.1016/j.jct.2006.10.016).
± gives the expanded uncertainty stated by the source.

Test: xn = mol fraction of the nth substance listed
Settings: 101 kPa, Liquid

C[S+](C)[O-] [dimethyl sulfoxide] + CO
Settings | mass density, 303.15 K [kg/m3] | mass density, 308.15 K [kg/m3] | mass density, 313.15 K [kg/m3] | mass density, 318.15 K [kg/m3] | mass density, 323.15 K [kg/m3] | viscosity, 303.15 K [mPa·s] | viscosity, 308.15 K [mPa·s] | viscosity, 313.15 K [mPa·s] | viscosity, 318.15 K [mPa·s] | viscosity, 323.15 K [mPa·s]
x1 = 0.0998 | 837.8 ± 2.1 | 834.7 ± 2.2 | 829.9 ± 2.3 | 825.2 ± 2.4 | 820.4 ± 2.6 | 0.5976 ± 0.031 | 0.5587 ± 0.029 | 0.5228 ± 0.028 | 0.4918 ± 0.027 | 0.4582 ± 0.025
x1 = 0.2004 | 886 ± 2.3 | 882.3 ± 2.4 | 877.3 ± 2.5 | 872.2 ± 2.6 | 867.1 ± 2.7 | 0.678 ± 0.034 | 0.6322 ± 0.032 | 0.591 ± 0.031 | 0.5532 ± 0.029 | 0.5163 ± 0.028
x1 = 0.3007 | 925 ± 2.4 | 921 ± 2.5 | 916.3 ± 2.6 | 910.8 ± 2.7 | 905.7 ± 2.8 | 0.7684 ± 0.038 | 0.7147 ± 0.036 | 0.6694 ± 0.034 | 0.6281 ± 0.032 | 0.5857 ± 0.03
x1 = 0.3998 | 959.3 ± 2.5 | 955 ± 2.6 | 950.7 ± 2.7 | 944.7 ± 2.8 | 939.6 ± 2.9 | 0.8719 ± 0.042 | 0.8091 ± 0.04 | 0.7576 ± 0.038 | 0.7073 ± 0.036 | 0.6605 ± 0.034
x1 = 0.4996 | 988.4 ± 2.6 | 983.6 ± 2.7 | 979.6 ± 2.8 | 973.3 ± 2.9 | 968.4 ± 3 | 0.9887 ± 0.047 | 0.9164 ± 0.044 | 0.8549 ± 0.042 | 0.7972 ± 0.039 | 0.7426 ± 0.037
x1 = 0.6008 | 1013.9 ± 2.7 | 1009 ± 2.8 | 1005.6 ± 2.9 | 999.4 ± 3 | 994.4 ± 3.1 | 1.123 ± 0.053 | 1.037 ± 0.049 | 0.9676 ± 0.046 | 0.9008 ± 0.044 | 0.8357 ± 0.041
x1 = 0.699 | 1035.3 ± 2.8 | 1030.1 ± 2.9 | 1026.9 ± 3 | 1020.9 ± 3.1 | 1016 ± 3.2 | 1.272 ± 0.059 | 1.172 ± 0.055 | 1.09 ± 0.051 | 1.012 ± 0.048 | 0.9359 ± 0.045
x1 = 0.8011 | 1055.5 ± 2.8 | 1050.3 ± 2.9 | 1047.7 ± 3 | 1040.9 ± 3.1 | 1036.3 ± 3.2 | 1.442 ± 0.066 | 1.326 ± 0.061 | 1.226 ± 0.057 | 1.131 ± 0.053 | 1.045 ± 0.05
x1 = 0.8997 | 1073.7 ± 2.9 | 1068.3 ± 3 | 1065.8 ± 3.1 | 1059 ± 3.2 | 1054 ± 3.3 | 1.629 ± 0.074 | 1.492 ± 0.068 | 1.379 ± 0.064 | 1.269 ± 0.059 | 1.167 ± 0.055
x1 = 1 | 1090.7 ± 2.9 | 1084.7 ± 3 | 1082.3 ± 3.2 | 1075.1 ± 3.2 | 1070.1 ± 3.4 | 1.832 ± 0.082 | 1.67 ± 0.076 | 1.537 ± 0.07 | 1.408 ± 0.065 | 1.289 ± 0.06
